Measured values as given in patent publication US10105357B2, “Indication of antibiotic drugs for preparation of cancer inhibition pharmaceutical composition” (LAUNX BIOMEDICAL CO., LTD., priority 2014, dated 2018).

Tests used:
[1] = tested on: HI650 (Lung Adenocarcinoma); assay: Cell viability analysis, lung cancer HI650; assay type: cell-based, human
[2] = tested on: BCC (basal cell carcinoma); assay: Cell viability analysis, skin cancer BCC; assay type: cell-based, human
[3] = tested on: 786-O (Renal adenocarcinoma); assay: Cell viability analysis, renal cancer 786-O; assay type: cell-based, human
[4] = tested on: LoVo (Colorectal Adenocarcinoma); assay: Cell viability analysis, colon cancer LoVo; assay type: cell-based, human
[5] = tested on: A549 (Lung Adenocarcinoma); assay: Cell viability analysis, lung cancer A549; assay type: cell-based, human
T24 = assay: Cell viability analysis, bladder cancer T24; assay type: cell-based, human
[6] = tested on: C-33A (Cervical carcinoma); assay: Cell viability analysis, cervical cancer C-33A; assay type: cell-based, human
[7] = tested on: HeLa (Cervix Adenocarcinoma); assay: Cell viability analysis, cervical cancer HeLa; assay type: cell-based, human
[8] = tested on: MDA-MB-231 (Mammary Gland, Adenocarcinoma); assay: Cell viability analysis, breast cancer MDA-MB-231; assay type: cell-based, human
U-2OS = assay: Cell viability analysis, osteosarcoma U-2OS; assay type: cell-based, human
BxPC-3 = assay: Cell viability analysis, pancreatic cancer BxPC-3; assay type: cell-based, human
[9] = tested on: HepG2 (Hepatocellular Carcinoma); assay: Cell viability analysis, hepatic cancer HepG2; assay type: cell-based, human
TOV-21G = assay: Cell viability analysis, ovarian cancer TOV-21G; assay type: cell-based, human
[10] = tested on: SAS (Tongue squamous cell carcinoma); assay: Cell viability analysis, tongue cancer SAS; assay type: cell-based, human
AsPC-1 = assay: Cell viability analysis, pancreatic cancer AsPC-1; assay type: cell-based, human
[11] = tested on: PC3 (p53−) (Prostate Adenocarcinoma); assay: Cell viability analysis, prostate cancer PC3; assay type: cell-based, human
NIH: OVCAR-3 = assay: Cell viability analysis, ovarian cancer NIH: OVCAR-3; assay type: cell-based, human
[12] = tested on: Hep3B (hepatocellular carcinoma); assay: Cell viability analysis, hepatic cancer Hep3B; assay type: cell-based, human
[13] = tested on: A375 (Amelanotic Melanoma); assay: Cell viability analysis, skin cancer A375; assay type: cell-based, human
[14] = tested on: TSGH-8301 (Urinary Bladder Carcinoma); assay: Cell viability analysis, bladder cancer TSGH-8301; assay type: cell-based, human
[15] = tested on: HCT116 (p53+) (Colorectal Carcinoma)
[16] = tested on: MCF7 (Mammary Gland, Adenocarcinoma); assay: Cell viability analysis, breast cancer MCF7; assay type: cell-based, human
[17] = tested on: AGS (Gastric Adenocarcinoma); assay: Cell viability analysis, gastric cancer AGS; assay type: cell-based, human
[18] = tested on: MKN-45 (Gastric Adenocarcinoma); assay: Cell viability analysis, gastric cancer MKN-45; assay type: cell-based, human

CCCOc1ccc2nc(NC(=O)OC)[nH]c2c1 [Oxibendazole]
viability at 10 µM ([1]; Homo sapiens, NCI-H1650, 72 h, read-out: The results of antibiotic drug inhibiting cancer cell lines (cell viability analysis), H1650, H1650, repeated experiment): 41.3%
viability at 10 µM ([2]; Homo sapiens, 72 h, read-out: The results of antibiotic drug inhibiting cancer cell lines (cell viability analysis), BCC): 34.3%
viability at 10 µM ([3]; Homo sapiens, 786-0, 72 h, read-out: The results of antibiotic drug inhibiting cancer cell lines (cell viability analysis), 786-O): 18.5%
viability at 10 µM ([4]; Homo sapiens, LoVo, 72 h, read-out: The results of antibiotic drug inhibiting cancer cell lines (cell viability analysis), LoVo, repeated experiment): 53.4%
viability at 10 µM ([5]; Homo sapiens, A549, 72 h, read-out: The results of antibiotic drug inhibiting cancer cell lines (cell viability analysis), A549, A549, repeated experiment): 24%
viability at 10 µM (T24; Homo sapiens, T-24, 72 h, read-out: The results of antibiotic drug inhibiting cancer cell lines (cell viability analysis), T24): 38.1%
viability at 10 µM ([6]; Homo sapiens, C-33-A, 72 h, read-out: The results of antibiotic drug inhibiting cancer cell lines (cell viability analysis), C-33A): 47.8%
viability at 10 µM ([7]; Homo sapiens, HeLa, 72 h, read-out: The results of antibiotic drug inhibiting cancer cell lines (cell viability analysis), HeLa, repeated experiment): 29.3%
viability at 10 µM ([8]; Homo sapiens, MDA-MB-231, 72 h, read-out: The results of antibiotic drug inhibiting cancer cell lines (cell viability analysis), MDA-MB231): 48.9%
viability at 10 µM (U-2OS; Homo sapiens, U2OS, 72 h, read-out: The results of antibiotic drug inhibiting cancer cell lines (cell viability analysis), U2OS): 46.6%
viability at 10 µM (BxPC-3; Homo sapiens, BXPC-3, 72 h, read-out: The results of antibiotic drug inhibiting cancer cell lines (cell viability analysis), BxPC-3): 29.1%
viability at 10 µM ([9]; Homo sapiens, HepG2, 72 h, read-out: The results of antibiotic drug inhibiting cancer cell lines (cell viability analysis), HepG2, HepG2, repeated experiment): 64.5%
viability at 10 µM (TOV-21G; Homo sapiens, TOV21G, 72 h, read-out: The results of antibiotic drug inhibiting cancer cell lines (cell viability analysis), TOV-21G): 26.6%
viability at 10 µM ([10]; Homo sapiens, 72 h, read-out: The results of antibiotic drug inhibiting cancer cell lines (cell viability analysis), SAS): 41.2%
viability at 10 µM (AsPC-1; Homo sapiens, ASPC1, 72 h, read-out: The results of antibiotic drug inhibiting cancer cell lines (cell viability analysis), AsPC-1): 33%
viability at 10 µM ([11]; Homo sapiens, 72 h, read-out: The results of antibiotic drug inhibiting cancer cell lines (cell viability analysis), PC-3, PC-3, repeated experiment): 38.9%
viability at 10 µM (NIH: OVCAR-3; Homo sapiens, OVCAR-3, 72 h, read-out: The results of antibiotic drug inhibiting cancer cell lines (cell viability analysis), NIH-OVCAR-3): 54.8%
viability at 10 µM ([12]; Homo sapiens, Hep3B, 72 h, read-out: The results of antibiotic drug inhibiting cancer cell lines (cell viability analysis), Hep3B): 59.8%
viability at 10 µM ([13]; Homo sapiens, A-375, 72 h, read-out: The results of antibiotic drug inhibiting cancer cell lines (cell viability analysis), A375, A375, repeated experiment): 31.8%
viability at 10 µM ([14]; Homo sapiens, 72 h, read-out: The results of antibiotic drug inhibiting cancer cell lines (cell viability analysis), TSGH-8301, TSGH-8301, repeated experiment): 48.6%
viability [15]: 22.1%
viability at 10 µM ([16]; Homo sapiens, MCF7, 72 h, read-out: The results of antibiotic drug inhibiting cancer cell lines (cell viability analysis), MCF-7, MCF-7, repeated experiment): 60.9%
viability at 10 µM ([17]; Homo sapiens, 72 h, read-out: The results of antibiotic drug inhibiting cancer cell lines (cell viability analysis), AGS, repeated experiment): 37.6%
viability at 10 µM ([18]; Homo sapiens, MKN-45, 72 h, read-out: The results of antibiotic drug inhibiting cancer cell lines (cell viability analysis), MKN-45, MKN-45, repeated experiment): 65.6%

Cc1cc(C#N)cc(C)c1Oc1nc(Nc2ccc(C#N)cc2)nc(N)c1Br [Etravirine (TMC125)]
The results of antibiotic drug inhibiting cancer cell lines (cell viability analysis), H1650 [1]: 51.13
The results of antibiotic drug inhibiting cancer cell lines (cell viability analysis), BCC [2]: 46.3
The results of antibiotic drug inhibiting cancer cell lines (cell viability analysis), 786-O [3]: 59.38
The results of antibiotic drug inhibiting cancer cell lines (cell viability analysis), LoVo [4]: 45.66
The results of antibiotic drug inhibiting cancer cell lines (cell viability analysis), A549 [5]: 37
The results of antibiotic drug inhibiting cancer cell lines (cell viability analysis), T24 (T24): 56.73
The results of antibiotic drug inhibiting cancer cell lines (cell viability analysis), C-33A [6]: 63.88
The results of antibiotic drug inhibiting cancer cell lines (cell viability analysis), HeLa [7]: 47.73
The results of antibiotic drug inhibiting cancer cell lines (cell viability analysis), MDA-MB231 [8]: 95.38
The results of antibiotic drug inhibiting cancer cell lines (cell viability analysis), U2OS (U-2OS): 36.38
The results of antibiotic drug inhibiting cancer cell lines (cell viability analysis), BxPC-3 (BxPC-3): 41.88
The results of antibiotic drug inhibiting cancer cell lines (cell viability analysis), HepG2 [9]: 68.31
The results of antibiotic drug inhibiting cancer cell lines (cell viability analysis), TOV-21G (TOV-21G): 28.26
The results of antibiotic drug inhibiting cancer cell lines (cell viability analysis), SAS [10]: 34.01
The results of antibiotic drug inhibiting cancer cell lines (cell viability analysis), AsPC-1 (AsPC-1): 41.11
The results of antibiotic drug inhibiting cancer cell lines (cell viability analysis), PC-3 [11]: 53.42
The results of antibiotic drug inhibiting cancer cell lines (cell viability analysis), NIH-OVCAR-3 (NIH: OVCAR-3): 64.29
The results of antibiotic drug inhibiting cancer cell lines (cell viability analysis), Hep3B [12]: 78.35
The results of antibiotic drug inhibiting cancer cell lines (cell viability analysis), A375 [13]: 37.32
The results of antibiotic drug inhibiting cancer cell lines (cell viability analysis), TSGH-8301 [14]: 56.13
viability [15]: 54.1%
The results of antibiotic drug inhibiting cancer cell lines (cell viability analysis), MCF-7 [16]: 56.33
The results of antibiotic drug inhibiting cancer cell lines (cell viability analysis), AGS [17]: 49.66
The results of antibiotic drug inhibiting cancer cell lines (cell viability analysis), MKN-45 [18]: 62.38
